The record followed here is patent publication US12188086B2, “Nucleotide analogues and use thereof for nucleic acid sequencing and analysis preliminary class” (The Trustees of Columbia University in the City of New York, priority 2018, dated 2025).

The subject of series [1] is Therminator IX DNA polymerase. In words: Single base extension reaction, checked by MALDI-TOF MS. The settings on record: for efficiency of primer strand extension: no primer peak is visible. Also on record: efficiency of primer strand extension: concentration or dose not given beside the values. Format: biochemical. As for the experimental part:
A single base DNA extension reaction (SBE) was performed with 3′-O-SS (DTM)-dTTP-PEG4-Azo-Cy5, using a primer (5′-[…]-3′ [SEQ ID 1]) and a synthetic DNA template (5′-[…]-3′ [SEQ ID 2]) based on a portion of exon 8 of the human p53 gene as follows. The bold letters in the template represent the extension position for the primers. 2 μL of 10× concentrated buffer, 1 μL of primer, E8TT (MW: 5163, 100 μM), 3 μL of Exon 8 template (20 μM), 1 μL of nucleotide (3′-O-t-butyl-SS-dTTP-PEG4-Azo-Cy5, 432 μM), 1 μL of Therminator IX DNA Polymerase, T9 (10 U/λ) and 12 μL of dH2O were combined in a total volume of 20 μL. The reaction consisted of 38 cycles at 65° C. for 30 seconds and 45° C. for 30 seconds. Single base extension was confirmed by MALDI-TOF MS as indicated by the major peak at 6791.8 Da (calc'd, 6782.4 Da) in the spectrum.
Synthesized 3′-O-t-butyl-SS-dATP-PEG4-Azo-Biotin was used to perform a single-base extension reaction. The primer E8AA-6084 (5′-[…]-3′ at 6084 Da), exon 8 template (see sequence above) and Therminator IX DNA polymerase (T9) were added along with the modified nucleotides. In the 3′-O-t-butyl-SS-dATP-PEG4-Azo-Biotin (A7) incorporation reaction, the primer was extended to 7327.4 Da (expected, 7326.3 Da). No primer peak was detected using MALDI TOF MS after 38 cycles of reaction.
Extension reactions consisted of 3 μl template (60 μM), 1 μl primer (100 μM), 2 μl of one of the above ddNTP analogues (100 μM), 2 μl 10× Thermo Pol Buffer, 1 μl Therminator IX DNA polymerase (10 unit/μl) and 11 μl water. Extension was performed in a thermal cycler and consisted of 1 min denaturation at 65° C., followed by 38 cycles of 30 sec at 65° C., 30 sec at 45° C. and 30 sec at 65° C., with a final 3 min extension at 72° C., and storage at 4° C. Desalting was carried out using Oligo Clean & Concentrator (Zymo Research) according to the manufacturer's instructions prior to checking results of polymerase reaction by MALDI-TOF-MS.

A further series concerns the target Thermo Sequenase (Thermus aquaticus, UniProt P19821, F272M/F667Y). The settings on record: read-out: concentration that produces the half maximum fluorescent intensity; 0.3 μM single fluorescein labeled self-primed template, 10 pH dCTP, ddCTP 0 to 10 μM.
Series [2] in a line: Compatibility test: stability of SS linker on sodium dithionite treatment (MALDI-TOF MS). Format: physicochemical. As to conditions: 25 mM Na2S2O4 in PBS pH 7.4, 30 min at 37° C. As for the experimental part:
Disclosed herein are the results of a compatibility test was performed using 3′-O-SS-dATP-SS-Rox (cal: MW1344.36 Da, observed 1345.61) as model compound. 2 μl of 0.1 mM 3′-O-SS-dATP-SS-Rox was treated with 100 μL of freshly made 25 mM Na2S2O4 (in PBS buffer [pH 7.4]) and the mixture was kept shaking for 30 min at 37° C. Then desalination was carried out with a ZipTip, and the product was subjected to MALDI TOF MS measurement. […] The result proves that the disulfide linker is stable at much higher concentration of sodium dithionite and at longer reaction time than necessary to cleave the Azo linker.
An additional compatibility test was conducted on 3′-SS-dC extended ssDNA. The single base extension experiment was carried out by adding 20 pmol Exon 8 template, 60 pmol primer (M.W. 5144), 2 mM MnCl2 and 2 U Therminator 9 polymerase in 20 μl 1×Pol buffer in each PCR reaction tube which were subject to PCR thermocycles (65° C. for 30″ 45° C. for 30″, 38 cycles). After completion of the incorporation, NaS2O4 solution was added to the reaction tube to a final concentration of 20 mM and incubated at room temperature for 40 min. Then the reaction mixture was treated with a Clean & Concentrator column to purify ssDNA. The resulting oligonucleotide was subject to MALDI-TOF MS measurement. […]

Series [3] can be described thus: THP cleavage of SS linker / 3′ blocking group on extended primer (MALDI-TOF MS). Format: physicochemical. As for the experimental part: Tris(hydroxypropyl)phosphine (THP) (1 μL, 1 mM) was added to the azo cleaved extended primer (9 μL, 15 μM) (E8TT+3′-O-t-butyl-SS-dTMP-PEG4-aniline, 6009.44 Da). […] After the spin column-based nucleic acid purification (ZymoPURE Oligo Clean & Concentrator), the product was confirmed by MALDI-TOF MS: 5881.4 Da (calc'd: 5874.9 Da). […]

Series [4] can be described thus: Sodium dithionite cleavage of azo linker on single base extended primer (MALDI-TOF MS). Format: physicochemical. As for the experimental part: The azo cleavage reaction was performed on single base extended primer (E8TT+3′-O-t-butyl-SS-dTMP-PEG4-Azo-Cy5, 6782.4 Da). A 1M stock solution of Na2S2O4 was prepared in 1×PBS buffer (pH 7.4). 1.25 μL Na2S2O4 solution was added to the extended primer solution (20 μL, 32 μM) along with 28.75 μL of 1×PBS buffer. […] Afterwards, reaction mixtures were purified with a ZipTip and concentrated using a Speed Vac. The size of the cleaved extended primer was characterized by MALDI-TOF MS as 6009.44 Da (calc'd: 6008.9 Da).
Single base extended primers (6084ExAA+3′-O-t-butyl-SS-dAMP-PEG4-Azo-Biotin, 7327.4 Da) was treated with 25 mM sodium dithionite in 1×PBS buffer. […] The azo cleaved product reflects a molecular weight of 6951.1 Da which agrees with the expected value of 6952.3 Da. […]

[5] abbreviates: 25 mM sodium dithionite at 45° C. for 1 minute.

pIC50: −log10 of the molar value.

Sequence of Thermo Sequenase (P19821 272-832 F272M/F667Y): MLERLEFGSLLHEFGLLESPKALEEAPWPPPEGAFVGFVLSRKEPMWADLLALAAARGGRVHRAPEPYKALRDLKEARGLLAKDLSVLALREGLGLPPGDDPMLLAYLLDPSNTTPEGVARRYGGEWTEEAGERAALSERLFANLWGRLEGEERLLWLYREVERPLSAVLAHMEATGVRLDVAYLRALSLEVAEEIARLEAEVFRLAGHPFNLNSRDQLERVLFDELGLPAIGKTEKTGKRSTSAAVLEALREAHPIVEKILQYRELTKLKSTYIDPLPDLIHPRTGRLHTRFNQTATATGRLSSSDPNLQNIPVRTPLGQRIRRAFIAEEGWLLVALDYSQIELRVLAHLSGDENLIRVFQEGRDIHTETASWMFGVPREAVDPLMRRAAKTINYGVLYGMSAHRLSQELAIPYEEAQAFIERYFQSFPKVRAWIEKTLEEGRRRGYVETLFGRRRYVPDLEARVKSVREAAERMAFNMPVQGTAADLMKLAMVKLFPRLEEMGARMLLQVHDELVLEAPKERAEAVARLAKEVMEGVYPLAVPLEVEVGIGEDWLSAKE
Description for Thermo Sequenase: A. Varying concentrations of ddCTP (0 to 10 μM) were added to solutions containing Thermo Sequenase, 0.3 μM single fluorescein labeled self-primed template and 10 pH dCTP. […] B. The same experiments performed with the tagged ddCTP (0 to 5 μM) shown in FIG. 79 in the presence of the same template and 5 μM dCTP.
Extension reactions were prepared with the primer, Thermo Sequenase, dCTP and various dilutions of ddCTP or tagged ddCTP. First, a series of SBE reactions were carried out with final ddCTP concentrations ranging from 0 to 10 μM at a concentration of dCTP of 10 μM and 0.3 pH of labeled primer. Under these conditions, the primer is extended by the incorporation of dCTP until it encounters ddCTP incorporation. […] Fluorescence intensity was measured on a SpectraMax3 Microplate Reader (Molecular Devices, LLC).

On to ddGTP-7-SS-Cy5, for which, in series [1], the “efficiency of primer strand extension” value is listed as around 100%.

Consider `Nc1ccn([C@H]2CC[C@@H](COP(=O)(O)OP(=O)(O)OP(=O)(O)O)O2)c(=O)n1` [ddCTP], for which, on Thermo Sequenase, the pIC50 is around 6.30.

For the molecule 3′-O-SS-dATP-SS-Rox, in series [2], the “integrity in the presence of Na2S2O4” value is listed as “no cleavage or degradation was observed”.

As to ddCTP-5-SS-Biotin, the “efficiency of primer strand extension” value in series [1] is reported as around 100%. In addition, the “cleavage of SS linker on extended primer” value in series [3] (THP) is given as “complete cleavage”.

Consider “3′-O-t-Butyl-SS(DTM)-dTTP-PEG4-Azo-Cy5 [3′-O-t-butyl-SS-dTTP-PEG4-Azo-Cy5]”, for which, in series [1] (38 cycles at 65° C. for 30 seconds and 45° C. for 30 seconds, no primer peak observed), the incorporation rate was 100%. Moreover, the “cleavage of azo linker on extended primer” value (“cleavage of azo linker” below) in series [4] (25 mM sodium dithionite at 37° C. for 20 minutes) is recorded as “complete cleavage”. In addition, the “removal of 3′ blocking group” value in series [3] (1 mM THP for 5 minutes at 65° C.) was “removed the blocking group with high efficiency”.

Consider ddTTP-5-Azo-Cy5, for which the “efficiency of primer strand extension” value in series [1] is given as around 100%. Further, in series [4] (setting [5]), the “cleavage of azo linker” value is given as “complete cleavage”.

With ddATP-7-Azo-Biotin, the “efficiency of primer strand extension” value in series [1] is around 100%. For the same molecule, the “cleavage of azo linker” value in series [4] (setting [5]) is listed as “complete cleavage”.

Take “3′-O-t-Butyl-SS(DTM)-dATP-PEG4-Azo-Biotin [3′-O-t-butyl-SS-dATP-PEG4-Azo-Biotin]”: the “efficiency of primer strand extension” value in series [1] is reported as around 100%. In series [4] (25 mM sodium dithionite in 1×PBS, 37° C. for 10 min), the “cleavage of azo linker” value is “can be cleaved efficiently”.
